Entries after “also recorded” stand apart in the source; their conditions may differ. Where two headings read alike, the source gives them in different places.
Legend:
FcγRIIa = assay: Phosphorylation of FcγRIIa during platelet activation (immunoprecipitation, Western blot with anti-phosphotyrosine); type: cell-based, human
Method: Whole platelet lysates were prepared by the addition of an equal volume of 2× lysis buffer (2% Nonidet P-40 1, 300 mM NaCl, 50 mM Tris, 2 mM Na3VO4, halt protease and phosphatase inhibitor cocktail [Pierce Biochemicals], ph 7.3) in an ice bath for 30 min. Lysates to be used for immunoprecipitation were pre-cleared of antibodies by the addition of protein G Dynabeads (Invitrogen, Carlsbad, Calif.).
Immunoprecipitation was performed overnight at 4° C. with the use of goat anti-CD32A/C (Santa Cruz Biotechnology, Santa Cruz, Calif.) or a mouse anti-phosphotyrosine conjugated with magnetic beads (4G10, Millipore, Billerica, Mass.). When anti-CD32A/C was used, antigen-antibody complexes were isolated with the use of protein G-coated magnetic beads (Dynabeads, Invitrogen, Carlsbad, Calif.) for 3 hours. Beads with antigen-antibody complexes were washed once with 0.5× lysis buffer and twice with phosphate buffered saline. Proteins were separated from beads in sample buffer before electrophoresis and wet transfer to Immobilon FL membranes (Millipore, Billerica, Mass.). […] Bands were detected with the use of use of a Li-Cor Odyssey Infrared Imaging system (Li-Cor Biosciences, Lincoln, Nebr.) or chemiluminescence (Amersham/General Electric Healthcare, Piscataway, N.J.).

platelets [1] = assay: cells; type: cell-based, human; settings: for fold induction at 0.5 µg/mL: Homo sapiens, Platelet
Excerpt: Volumes used minimize aggregation of platelets during activation. Activation of platelets was identified by anti-CD62-phycoerythrin (PE, identifies P-selectin) and fluorescein isothiocyanate (FITC)-conjugated PAC-1 (binds to activated GP IIb-IIIa) as described (Serrano F A, et al., Thromb J 2007; 5:7; Schneider D J, et al., Circulation 96:2877-83, 1997; Kabbani S S, et al., Circulation 2001; 104:181-6; Aggarwal A, et al., Am J Kidney Dis 2002; 40:315-22; and Schneider D J, et al., Diabetes Care, 32:944-9, 2009). Platelet expression of FcγRIIa was quantified with the use of anti-CD32-PE. For both assays (activation and quantification of expression of FcγRIIa) PE-Cy5-anti-CD42b was used as an activation independent marker of platelets. […] Fluorochrome labeled antibodies were from Becton Dickinson (San Jose, Calif.). […] Louis, Mo.), and ADP from BioData (Horsham, Pa.). […] J. et al., J Exp Med 1986; 163:826-836). The SRC kinase antagonist PP2 (EMD Biosciences) was dissolved in dimethylsulfoxide (DMSO, Sigma). Tirofiban was obtained from Merck Research Laboratories (Whitehouse Station, N.J.). The reaction mixture was incubated for 15 minutes at room temperature without stirring before platelets were fixed and erythrocytes lysed by addition of Optilyse-C solution (Beckman Coulter). Flow cytometric analysis was performed with the use of a Beckman Coulter FC500 (Miami, Fla.). Platelets were identified on the basis of size (forward and side scatter) and the binding of an activation independent ligand (anti-CD42b). As described, control samples to define a threshold for activation-dependent binding used non-immune IgG (Serrano F A, et al., Thromb J 2007; 5:7; Schneider D J, et al., Circulation 96:2877-83, 1997; Kabbani S S, et al., Circulation 2001; 104:181-6; Aggarwal A, et al., Am J Kidney Dis 2002; 40:315-22; and Schneider D J, et al., Diabetes Care, 32:944-9, 2009). Activation of platelets is reported as the percentage of platelets that bound an activation dependent ligand, a result that we have shown correlates directly with mean fluorescence intensity (Schneider D J, et al., Thromb Haemost 2001; 85:309-13).

platelets [2] = assay: Platelet activation in whole blood by flow cytometry, binding of PAC-1 (activated GP IIb-IIIa); type: cell-based, human
Excerpt: Volumes used minimize aggregation of platelets during activation. Activation of platelets was identified by anti-CD62-phycoerythrin (PE, identifies P-selectin) and fluorescein isothiocyanate (FITC)-conjugated PAC-1 (binds to activated GP IIb-IIIa) as described (Serrano F A, et al., Thromb J 2007; 5:7; Schneider D J, et al., Circulation 96:2877-83, 1997; Kabbani S S, et al., Circulation 2001; 104:181-6; Aggarwal A, et al., Am J Kidney Dis 2002; 40:315-22; and Schneider D J, et al., Diabetes Care, 32:944-9, 2009). Platelet expression of FcγRIIa was quantified with the use of anti-CD32-PE. For both assays (activation and quantification of expression of FcγRIIa) PE-Cy5-anti-CD42b was used as an activation independent marker of platelets. […] Fluorochrome labeled antibodies were from Becton Dickinson (San Jose, Calif.). […] Louis, Mo.), and ADP from BioData (Horsham, Pa.). […] J. et al., J Exp Med 1986; 163:826-836). The SRC kinase antagonist PP2 (EMD Biosciences) was dissolved in dimethylsulfoxide (DMSO, Sigma). Tirofiban was obtained from Merck Research Laboratories (Whitehouse Station, N.J.). […] Activation of platelets is reported as the percentage of platelets that bound an activation dependent ligand, a result that we have shown correlates directly with mean fluorescence intensity (Schneider D J, et al., Thromb Haemost 2001; 85:309-13).

Megakaryocyte cell line = assay: Expression of FcγRIIa by a megakaryocyte cell line; type: cell-based; settings: IFNγ treatment; FIG. 10
[3] = test system: human stem cell derived Megakaryocytes; assay: Expression of FcγRIIa by human stem cell derived megakaryocytes; type: cell-based; settings: IFNγ treatment; FIG. 11

Nc1ncnc2c1ncn2[C@@H]1O[C@H](COP(=O)(O)OP(=O)(O)O)[C@@H](O)[C@H]1O [ADP, adenosine diphosphate]
time after exposure at which phosphorylation of FcγRIIa was greatest (FcγRIIa; platelets from healthy subjects, thrombin 50 nM, convulxin 10 ng/ml, ADP 25 μM, PAF 100 nM): 3 to 5 min

CC(C)(C)n1nc(-c2ccc(Cl)cc2)c2c(N)ncnc21 [PP2]
effect of PP2 on agonist-induced platelet activation, P-selectin expression (platelets [1]; PP2 20 μM vs vehicle DMSO, whole blood, healthy subjects n=7, FIG. 6B): inhibited activation induced by each agonist | effect of PP2 on agonist-induced platelet activation, PAC-1 binding (platelets [2]; PP2 20 μM vs vehicle DMSO, whole blood, healthy subjects n=7, FIG. 6A): inhibited activation induced by each agonist | effect of PP2 on phosphorylation of FcγRIIa during platelet activation (FcγRIIa; PP2 20 μM): prevented phosphorylation

CCCCS(=O)(=O)N[C@@H](Cc1ccc(OCCCCC2CCNCC2)cc1)C(=O)O [tirofiban]
fold induction at 0.5 µg/mL (platelets [1]; read-out: fold induction of ADP induced platelet activation by added fibrinogen after pretreatment with tirofiban): 1.2 ± 0.1 | fold induction at 0.5 µg/mL (platelets [1]; read-out: fold induction of ADP-induced platelet activation by added Factor XIII after pretreatment with tirofiban): 0.8 ± 0.2 | effect of tirofiban on platelet activation induced by goat anti-FcγRIIa (platelets [1]; tirofiban 0.5 μg/ml, activator goat anti-FcγRIIa): nor did it alter activation | effect of tirofiban on agonist-induced P-selectin expression (platelets [1]; tirofiban 0.5 μg/ml, n=3 subjects, FIG. 5D): did not attenuate | effect of tirofiban on binding of PAC-1 to platelets (platelets [2]; tirofiban 0.5 μg/ml): blocked completely; also recorded: abolished binding of PAC-1

IFNγ: cytokine that increases FcγRIIa expression by megakaryocytes
effect on expression of FcγRIIa by a Megakaryocyte cell line (Megakaryocyte cell line): increases | effect on expression of FcγRIIa by human stem cell derived Megakaryocytes [3]: increases
